“And” between values parts separate entries of the source, which are not always exact repeats. Equal entries are not always repeated. After the bases stand the sugars from the 5' end (letter, count) and the backbone: PS all phosphorothioate, else s phosphorothioate and o phosphodiester by linkage. Methylation of C is not given here. e = 2'-O-(2-methoxyethyl) (MOE); k = constrained ethyl (cEt); d = 2'-deoxy (DNA)
Target: KRAS
Details: ASO

Row | Sequence | target mRNA inhibition (A431, 2 µM) | further results
1 | TGGTGTAACATAGGTT (sugars kkdddddddddkdkdk, PS) | 57% | target mRNA inhibition (A431, 0.185 µM): 13%; target mRNA inhibition (A431, 0.556 µM): 33%; target mRNA inhibition (A431, 1.667 µM): 63%; target mRNA inhibition (A431, 5 µM): 75%
2 | GTAAATATAGCCCCAA (sugars k3 d10 k3, PS) | 29% | –
3 | GGCATTTCTGATGTGA (sugars k3 d10 k3, PS) | 8% | –
4 | GGTGTAACATAGGTTA (sugars kkddddddddkekekk, PS) | 54% | target mRNA inhibition (A431, 0.185 µM): 0%; target mRNA inhibition (A431, 0.556 µM): 2%; target mRNA inhibition (A431, 1.667 µM): 40%; target mRNA inhibition (A431, 5 µM): 58%
5 | CCATTTATGTGACTAG (sugars kkdddddddddkdkdk, PS) | 43% | –
6 | CAGTGTGACTCAGTTA (sugars kkkdddddddddkeke, PS) | 55% | –
7 | TCCAGTGATACTTTCA (sugars kkkddddddddkekek, PS) | 48% | –
8 | ATGCTAATAATTTAGT (sugars k3 d10 k3, PS) | 11% | –
9 | TTGTACTAGTATGCCT (sugars k3 d10 k3, PS) | 55% | –
10 | GATATCCACAGCAGCA (sugars k3 d10 k3, PS) | 10% | –
11 | CCAGTGTTAAGAGAAC (sugars k3 d9 k3 e1, PS) | 55% | –
12 | AACCAGTGTTAAGAGA (sugars k3 d10 k3, PS) | 35% | –
13 | CATTACTTTTTGACAA (sugars k3 d10 k3, PS) | 8% | –
14 | ACCATTCAAAGTTCAC (sugars kkdddddddddkekek, PS) | 36% | –
15 | GTTTAAAAAAAAAATT (sugars k3 d10 k3, PS) | 2% | –
16 | GGAGTCTTTATAGTAA (sugars k3 d10 k3, PS) | 38% | –
17 | CCAGTGTTAAGAGAAC (sugars k3 d10 k3, PS) | 33% | –
18 | CTAAAACAAATGCTAA (sugars k3 d10 k3, PS) | 15% | –
19 | CCAGTGTTAAGAGAAC (sugars kkdddddddddkekek, PS) | 43% | –
20 | GTACTAGTATGCCTTA (sugars k3 d10 k3, PS) | 50% | –
21 | ACTTGAAAAGTGTTTA (sugars k3 d10 k3, PS) | 16% | –
22 | CAGTGTGACTCAGTTA (sugars kkkddddddddkdkdk, PS) | 60% and 50% | target mRNA inhibition (A431, 0.185 µM): 10%; target mRNA inhibition (A431, 0.556 µM): 24%; target mRNA inhibition (A431, 1.667 µM): 45%; target mRNA inhibition (A431, 5 µM): 66%

Row | Sequence | target mRNA inhibition (A431, 2 µM) | further results
23 | CAGTGTTAAGAGAACT (sugars kddddddddddkekek, PS) | 23% | –
24 | GTCCAGTGATACTTTC (sugars kkddddddddddkeke, PS) | 39% | –
25 | TCTATGAAAGCTCAAA (sugars k3 d10 k3, PS) | 18% | –
26 | CTTGATTTGTCAGCAG (sugars k3 d9 k3 e1, PS) | 46% | –
27 | ATGGTGTAACATAGGT (sugars kkkddddddddkekek, PS) | 43% | –
28 | CTTACAAATCTGAATT (sugars k3 d10 k3, PS) | 7% | –
29 | CGAGAATGGATATTCA (sugars k3 d10 k3, PS) | 14% | –
30 | GTGAAACTCTCTATGA (sugars k3 d10 k3, PS) | 28% | –
31 | TGATTTGTCAGCAGGA (sugars kkddddddddkekekk, PS) | 32% and 17% | –
32 | TTGATTTGTCAGCAGG (sugars kkdddddddddkdkdk, PS) | 53% | –
33 | GTGTTTATGCAATGTT (sugars k3 d9 k3 e1, PS) | 59% | target mRNA inhibition (A431, 0.185 µM): 19%; target mRNA inhibition (A431, 0.556 µM): 63%; target mRNA inhibition (A431, 1.667 µM): 79%; target mRNA inhibition (A431, 5 µM): 88%
34 | ATTGTGCAATGGTGAC (sugars k3 d10 k3, PS) | 57% | –
35 | GCATGAAGATTTCTGG (sugars k3 d10 k3, PS) | 62% and 66% and 60% | –
36 | TAATAGTTTCCATTGC (sugars k3 d10 k3, PS) | 53% | –
37 | GAGATATCCACAGCAG (sugars k3 d10 k3, PS) | 49% | –
38 | TAAGGTAAAAGCTAAC (sugars k3 d10 k3, PS) | 20% | –
39 | CCATTCAAAGTTCACA (sugars kkdddddddddkekek, PS) | 36% | –
40 | CTTGTACTAGTATGCC (sugars k3 d10 k3, PS) | 59% | target mRNA inhibition (A431, 0.185 µM): 24% and 13%; target mRNA inhibition (A431, 0.556 µM): 46% and 35%; target mRNA inhibition (A431, 1.667 µM): 67% and 52%; target mRNA inhibition (A431, 5 µM): 77% and 71%
41 | GTAGTTTCACATAGCA (sugars k3 d10 k3, PS) | 46% | –
42 | ATTCAAAGTTCACATA (sugars k3 d10 k3, PS) | 0% | –
43 | GCTGTGAAACTCTCTA (sugars kdddddddddkekeke, PS) | 2% | –
44 | AAATTAATGTCTTGGC (sugars k3 d10 k3, PS) | 47% | –

Row | Sequence | target mRNA inhibition (A431, 2 µM) | further results
45 | GGAGTCTTTATAGTAA (sugars k3 d9 k3 e1, PS) | 41% | –
46 | ATCTTGTTGAGCTATC (sugars k3 d10 k3, PS) | 40% | –
47 | TTATGGTTAGGGGAAT (sugars k3 d10 k3, PS) | 21% | –
48 | TTGAAAAGTGTTTATG (sugars k3 d10 k3, PS) | 26% | –
49 | TCCATTTATGTGACTA (sugars kkdddddddddkekek, PS) | 32% | –
50 | ACCAGTGTTAAGAGAA (sugars kkkdddddddddkeke, PS) | 40% | –
51 | TGTAGTTTCACATAGC (sugars k3 d10 k3, PS) | 59% | target mRNA inhibition (A431, 0.185 µM): 28% and 3%; target mRNA inhibition (A431, 0.556 µM): 45% and 34%; target mRNA inhibition (A431, 5 µM): 75% and 69%
52 | GTTCTGTCTATTCATA (sugars k3 d10 k3, PS) | 31% | –
53 | ATGCTGTGAAACTCTC (sugars k3 d10 k3, PS) | 58% and 52% and 39% | target mRNA inhibition (A431, 0.185 µM): 26%; target mRNA inhibition (A431, 0.556 µM): 42%; target mRNA inhibition (A431, 1.667 µM): 47%; target mRNA inhibition (A431, 5 µM): 72%
54 | CCAGTGTTAAGAGAAC (sugars kkdddddddddkdkdk, PS) | 38% | –
55 | CAGTGTGACTCAGTTA (sugars kkdddddddddkekek, PS) | 56% | –
56 | GACTTGAAAAGTGTTT (sugars k3 d10 k3, PS) | 14% | –
57 | AGATTGTGCTGAGCTT (sugars kkkddddddddkekek, PS) | 26% | –
58 | ATGGTGAATATCTTCA (sugars k3 d10 k3, PS) | 64% | target mRNA inhibition (A431, 1.667 µM): 45% and 31%; target mRNA inhibition (A431, 5 µM): 70% and 65%
59 | TTTTAATGTCACAAGC (sugars k3 d10 k3, PS) | 52% | –
60 | TTTAATGTCACAAGCA (sugars k3 d10 k3, PS) | 57% | target mRNA inhibition (A431, 0.037 µM): 58%; target mRNA inhibition (A431, 5 µM): 96% and 93%; target mRNA inhibition (NCI-H460, 0.037 µM): 44.2%
61 | TTGATTTGTCAGCAGG (sugars kkddddddddddkeke, PS) | 66% and 45% | target mRNA inhibition (A431, 0.185 µM): 25%; target mRNA inhibition (A431, 0.556 µM): 48%; target mRNA inhibition (A431, 1.667 µM): 62%; target mRNA inhibition (A431, 5 µM): 83%
62 | CATTCAAAGTTCACAT (sugars k3 d10 k3, PS) | 2% | –
63 | ATTAGGAGTCTTTATA (sugars k3 d10 k3, PS) | 20% | –
64 | CATTTATGTGACTAGA (sugars kdddddddddkekeke, PS) | 24% | –
65 | AGTGTGACTCAGTTAA (sugars kkdddddddddkekek, PS) | 48% | –
66 | CAGTGTGACTCAGTTA (sugars kdddddddddkekeke, PS) | 54% | –

Reference: the OligoGym collection
